Assay results taken from US20110319360A1, “Method of including apoptosis/Cell death in leukemia cell using a purine nucleoside analogue” (U.S. Department of Veterans Affairs, priority 2010, published 2011).
Read-outs that look alike come from different tables or passages of the source.

How the values were obtained:
[1] = tested on: CD34+ hematopoietic progenitor cells (erythroid colonies); test: Colony formation assay, erythroid colonies; type: cell-based, human
Procedure: CD34^+ hematopoietic progenitor cells were isolated from PBMCs from two healthy donors using the CD34 Microbead Kit (Miltenyi Biotec, Auburn, Calif.). 10^3 CD34^+-enriched cells were cultured in a 35 mm culture plate (1000 cells/plate) with or without LMP-420 or fludarabine in 1.1 ml Human Methylcellulose Complete Media (R&D Systems) according to the manufacturer's protocol. Plates were incubated for 14 days at 37° C. in humidified 5% CO2. Each treatment group was tested in triplicate. Colonies on plates were scored by two independent observers, blinded to the treatment groups, by microscopic evaluation under 10× and 20× power. Colonies were categorized as being of either erythroid or myeloid lineage.

CD3-positive T-cell = test: Annexin V apoptosis of normal T-lymphocytes in PBMCs; type: cell-based, human; settings: 72 hours
Procedure: PBMCs were cultured at 10^6 cells/ml in a 12-well tissue culture plate. Cells were treated for 72 hours with vehicle control or drug for 72 hours, then harvested as above for staining. PBMCs were resuspended at 2×10^5 cells/tube in 100 μl buffer (HBSS, 0.5% bovine serum albumin, 0.1% sodium azide) and incubated for 30 min with CD3-FITC or CD19-FITC antibodies according to the manufacturer's protocol (BD Biosciences). Cells were then incubated with PE-annexin V and 7-AAD (BD Biosciences) in annexin V binding buffer (BD Biosciences) for 15 minutes prior to analysis of apoptosis on the Guava EasyCyte™ Plus system.

[2] = Prior in vivo toxicity studies in rodents
normal PBMCs = test: [3H]-thymidine proliferation assay, mitogen-stimulated normal PBMCs; type: cell-based, human; settings: for IC50: Homo sapiens, PBMC, 96 h, read-out: IC50 for suppression of mitogen-induced proliferation
Procedure: CLL cells (2×10^5 cells/well) were cultured in quadruplicate in a volume of 200 μl in 96-well tissue culture plates for 96 hours with 1 μM CpG-oligodeoxynucleotides (ODN) DSP30 (Reference 14) (Midland Certified Reagent Company, Midland, Tex.) and 100 units/ml IL-2 (R&D Systems) in the presence or absence of drug. As controls, cells were treated with media without DSP30/IL-2. Cells were incubated with 1 μCi/well [methyl-^3H]-thymidine (specific activity 6.7 Ci/mmol, PerkinElmer, Waltham, Mass., USA) for 14-18 hours prior to harvesting onto glass-fiber filters using a semi-automated cell harvester. [^3H]-thymidine incorporation was measured as counts per minute (cpm) using a Tri-Carb 2100 timed-resolved liquid scintillation counter (PerkinElmer). The same protocol was utilized for proliferation assays with normal PBMCs, with the exception that growth was stimulated by treatment with 10 μg/ml Phytohemagglutinin-P (PHA, Sigma), 5 μg/ml concanavalin A (ConA, Sigma), 2 μg/ml pokeweed mitogen (PWM, Sigma), 25 ng/ml muromonab-CD3 (α-CD3, Ortho Pharmaceuticals, Raritan, N.J.), or 50 ng/ml phorbol myristate acetate (PMA, Sigma) plus 1 μg/ml ionomycin (iono, Sigma) for 96 hours. Proliferation is reported as percent of control (drug-treated cpm/control-treated cpm×100%).

CLL cells = test: MTS cytotoxicity assay on primary CLL cells; type: cell-based; settings: Homo sapiens, CLL cell
Procedure: On the same day that heparin-anticoagulated venous blood was collected from participants, CLL cells were purified by methods described previously (Reference 11). Briefly, CLL cells were isolated from whole blood using the RosetteSep® B-cell enrichment cocktail (Stem Cell Technologies, Vancouver, BC, Canada) together with ficoll-Hypaque density gradient centrifugation. This method yielded CLL cell purity of greater than 95% CD5^+CD19^+ B-cells.
2.5×10^5 CLL cells were incubated in triplicate or quadruplicate in a 96-well tissue culture plate (Costar, Corning, N.Y.) with serial dilutions of LMP-420, fludarabine, and/or recombinant TNF-alpha (R&D Systems, Minneapolis, Minn.) in Hybridoma serum free media (SFM) (GIBCO/Invitrogen, Carlsbad, Calif.) containing 10% heat-inactivated fetal bovine serum (FBS) (Sigma) at 37° C. with 5% CO2. After 72 hours, 20 μl CellTiter 96® AQueous One Solution Cell Proliferation Assay (Promega, Madison, Wis.) MTS (3-(4,5 dimethylthiazol-2-yl)-5-(3-carboxymethoxyphenyl-2-(4-sulfophenyl)-2H-tetrazolium) reagent was added to each well and the absorbance was read at 490 nm on a Thermomax microplate reader (Molecular Devices, Sunnyvale, Calif.). We calculated fractional cytotoxicity as performed previously (Reference 12), comparing absorbance at 490 nm from treated cells to control cells incubated with media alone.
The concentration effective at killing 50% of CLL cells compared to media alone (ED50) was calculated when 50% fractional cytotoxicity occurred within the range of serial dilutions tested (Reference 12). If the ED50 fell below or above this range, it was set to either the lowest or the highest concentration tested, respectively, for the purposes of statistical analyses and graphical representation.

For `Nc1nc(Cl)c2ncn(CCCCCB(O)O)c2n1` [LMP-420, 2-amino-6-chloro-9-[5(dihydroxyboryl)-pentyl] purine], the “erythroid colony IC50 relative to CLL ED50” value [1] was “greater than 40 fold”, the IC50 ([1]; Homo sapiens, 336 h, 14 days, healthy donors (n=2), read-out: mean IC50 for normal erythroid colony formation) was 10000 nM and the “average percent drug-specific apoptosis, T-cells” value (CD3-positive T-cell; 1 μM, n=3) was −1%. The “apoptosis in normal T-lymphocytes” value (CD3-positive T-cell; concentrations up to 90 μM) was “did not induce significant apoptosis”, the “peak plasma level at non-toxic doses” value [2] was “greater than 10 μM” and the “PBMC proliferation IC50 relative to ED50 in CLL cells” value (normal PBMCs) was 100- to 250 fold. It also gave an IC50 (normal PBMCs; Con A, 96 hours) of 71000 nM, an IC50 (normal PBMCs; PHA, 96 hours) greater than 90000 nM and an IC50 (normal PBMCs; PMA/Iono, 96 hours) greater than 90000 nM. It also gave an IC50 (normal PBMCs; PWM, 96 hours) greater than 90000 nM, an IC50 (normal PBMCs; α-CD3, 96 hours) of 33000 nM and an EC50 (CLL cells; 72 h, five patients of the nucleosome ELISA set, 72 hours, read-out: mean ED50, fractional cytotoxicity by MTS) of roughly 0.85 µM. The EC50 (CLL cells; 72 h, primary CLL cells, 72 hours, MTS, mean of 35 samples, read-out: mean concentration required to induce 50% cytotoxicity (ED50)) was 0.245 µM, the EC50 (CLL cells; CLL samples with favorable risk cytogenetic aberrations, n=27, read-out: median MTS ED50) was 0.162 µM and the EC50 (CLL cells; CLL samples with favorable risk cytogenetic aberrations, n=27, read-out: range of MTS ED50) was 0.027 to 2.52 µM. For the same molecule, the EC50 (CLL cells; CLL samples with poor risk cytogenetic aberrations, n=5, read-out: median MTS ED50) was 0.332 µM and the EC50 (CLL cells; mean value from the MTS experiments, read-out: ED50 (μM), CLL) was 0.25 µM.
